Data as given in patent US20120171286A1, “METHODS AND COMPOSITIONS FOR THE TREATMENT AND DIAGNOSIS OF STATIN-INDUCED MYOPATHY” (Beth Isreal Deaconess Medical Center, priority 2009, published 2012).

How the values were obtained:
[1] = system: myotubes derived from atrogin-1 wildtype mice (+/+); test: Myotube diameter and morphology, myotubes from wildtype mice; format: cell-based, mouse; settings: for fiber diameter in myotube culture: 2.5 μM compound alone
Procedure: (§1) Myotube fiber size: Size was quantified by measuring a total of 200 tube diameters as described in Sandri et al. (Cell 117:399-412, 2004). Briefly, muscle fiber size from four random fields at 100-fold magnification was measured using IMAGE software (Scion). All data were expressed as the mean +/− S.E.M.

atrogin-1 protein = test: Atrogin-1 protein in myotubes by Western blotting; format: cell-based, mouse; settings: for atrogin-1 protein expression: 30 μM compound
Procedure: Western blotting: Cultured cells after treatment were collected at specific times and solubilized in RIPA lysis buffer (50 mM Tris-HCl, pH 7.4, 150 mM NaCl 1% NP-40, 0.5% sodium deoxycholate, 0.1% SDS (Boston Bioproducts)), protease (Roche) and phosphatase (Sigma) inhibitor cocktail). Proteins were separated by SDS-PAGE, transferred to PVDF membranes and visualized by Western blotting using alkaline phosphatase-based CDP-star chemiluminescent detection according to the manufacturer's protocol (Applied Biosystems). Polyclonal anti-atrogin-1 antibody was used as described in Bdolah et al. (Am. J. Physiol. Reg. Integr. Comp. Physiol. 292:R971-R976, 2007). Anti-actin and dynein antibodies were from Santa Cruz Biotechnology.

zebrafish atrogin-1 = test: Zebrafish atrogin-1 protein by Western blotting; format: in vivo, zebrafish (Danio rerio); settings: 12 hours; for atrogin-1 expression in zebrafish embryos: 2.5 μM compound alone
Procedure: Western blotting: Zebrafish embryos were homogenized in SDS sample buffer (30 embryos/30 μL of sample buffer) with microfuge pestle until the lysate became uniform in consistency and there was no longer stringy. The lysate was boiled for 5 minutes and centrifuged supernatant was processed for Western blotting (Hanai et al., J. Cell Biol. 158:529-539, 2002). […] (GAPDH) antibody was from Santa Cruz Biotechnology.

zebrafish embryos = test: Zebrafish embryo myofiber damage, myosin heavy chain staining; settings: for fiber diameter in zebrafish embryos: 2.5 μM compound alone
Procedure: Zebrafish lines and maintenance: Adult zebrafish (Danio rerio) were maintained as described under standard laboratory conditions at 28.5° C. in a 14 hour light/10 hour dark cycle (Westerfield, in Institute of Neuroscience University of Oregon, Eugene, Oreg.). Developmental stages were determined by embryo morphology and hours post fertilization (hpf) (Kimmel et al., Dev. Dyn. 203:253-310, 1995). To examine the effects of lovastatin, the embryos at 20-24 hpf were immersed in the embryonic water (500 μM NaCl, 170 μM KCl, 330 μM CaCl2, and 330 μM MgSO4) at a concentration of 0.005-10 μM lovastatin (mevinolin) (Sigma) including 0.003% 1-phenyl-2-thiourea (Sigma) to inhibit pigmentation in a 24-well plate. After 32 hpf, the embryos were fixed by 4% paraformaldehyde in PBS.
Whole zebrafish antibody staining: Zebrafish embryos were fixed by 4% paraformaldehyde in PBS overnight. After fixation, the embryos were washed by PBS and stored for at least 1 hour at −20° C. in methanol, and permeabilized for 30 minutes at −20° C. in acetone. Embryos were incubated with blocking buffer (1% BSA, 0.1% Tween-20 in PBS), and incubated with diluted primary antibody, anti-slow twitch myosin F59 (1:100; Developmental Studies Hybridoma Bank (DSHB), Department of Biological Sciences, University of Iowa) (Crow et al., Dev. Biol. 118:333-342, 1986; Devoto et al., Development 122:3371-3380, 1996) in blocking solution for overnight at 4° C. Staining was detected by using Alexa Fluor(R) 594 goat anti-mouse IgG (H+L) (1:200; Invitrogen) in blocking solution for 4 hours at room temperature (Birely et al., Dev. Biol. 280:162-176, 2005).

atrogin-1 mRNA = test: Atrogin-1 mRNA level in myotubes by real-time PCR; format: cell-based, mouse; settings: for atrogin-1 expression in myotube culture: 2.5 μM compound alone, mRNA and protein (FIGS. 7C-7D); for atrogin-1 mRNA expression: 30 μM compound
[2] = system: myotubes derived from atrogin-1 knockout mice (−/−); test: Myotube diameter and morphology, myotubes from atrogin-1 knockout mice; format: cell-based, mouse
Procedure: as §1

[3] = 2.5 μM compound with lovastatin, 24 hours, myotube culture
[4] = perillyl alcohol 1.0 mM for 24 hours, wildtype myotubes
[5] = mevalonate 100 μM + lovastatin 1 μM, 24 hours
[6] = lovastatin 24 hours, wildtype cultures

## CC(C)=CCC/C(C)=C/CC/C(C)=C/CC/C(C)=C/CO [geranylgeranol]
[1]; 24 hours
  fiber diameter in myotube culture: neither 2.5 μM farnesol nor 2.5 μM geranylgeranol alone had any effect
[1]; 2.5 μM compound with lovastatin, 24 hours
  fiber damage in myotube culture: reduced the degree
atrogin-1 protein; [3]
  degree of atrogin-1 protein induction: reduced the degree
Zebrafish atrogin-1
  atrogin-1 expression in zebrafish embryos: neither 2.5 μM farnesol nor 2.5 μM geranylgeranol alone had any effect
Zebrafish atrogin-1; 2.5 μM compound with lovastatin
  degree of atrogin-1 induction in zebrafish embryos: reduced the degree
Zebrafish embryos; 12 hours
  fiber diameter in zebrafish embryos: neither 2.5 μM farnesol nor 2.5 μM geranylgeranol alone had any effect
Zebrafish embryos; 2.5 μM compound with lovastatin, 12 hours
  fiber damage in zebrafish embryos: reduced the degree
atrogin-1 mRNA; 24 hours
  atrogin-1 expression in myotube culture: neither 2.5 μM farnesol nor 2.5 μM geranylgeranol alone had any effect
atrogin-1 mRNA; [3]
  degree of atrogin-1 mRNA induction: reduced the degree

## CC(C)=CCCC(C)=CCCC(C)=CCO [farnesol]
[1]; 24 hours
  fiber diameter in myotube culture: neither 2.5 μM farnesol nor 2.5 μM geranylgeranol alone had any effect
Zebrafish atrogin-1
  atrogin-1 expression in zebrafish embryos: neither 2.5 μM farnesol nor 2.5 μM geranylgeranol alone had any effect
Zebrafish embryos; 12 hours
  fiber diameter in zebrafish embryos: neither 2.5 μM farnesol nor 2.5 μM geranylgeranol alone had any effect
atrogin-1 mRNA; 24 hours
  atrogin-1 expression in myotube culture: neither 2.5 μM farnesol nor 2.5 μM geranylgeranol alone had any effect

## C=C(C)[C@@H]1CC=C(CO)CC1 [Perillyl alcohol, perillyl alcohol]
[1]; [4]
  damage of myotubes: marked damage
atrogin-1 protein; [4]
  atrogin-1 protein levels: induction
Zebrafish embryos; 0.1 to 1.0 mM perillyl alcohol for 12 hours
  muscle fibers in zebrafish embryos: dramatic thinning of muscle fibers and morphologic damage
atrogin-1 mRNA; [4]
  atrogin-1 mRNA levels: induction

## CC(O)(CCO)CC(=O)O (stereo not shown) [mevalonate]
[1]; [5]
  reduction of myotube diameter caused by lovastatin: completely prevented
[1]; mevalonate 100 μM alone, 24 hours
  effect on the muscle cultures when administered alone: no effect
atrogin-1 protein; [5]
  atrogin-1 protein induction caused by lovastatin: completely prevented
Zebrafish atrogin-1; 100 μM mevalonate + 0.05 to 1.0 μM lovastatin
  zebrafish atrogin-1 induction: completely prevented
Zebrafish embryos; 100 μM mevalonate + 0.05 to 1.0 μM lovastatin, 12 hours
  development of zebrafish myofiber damage: completely prevented
atrogin-1 mRNA; [5]
  atrogin-1 mRNA induction caused by lovastatin: completely prevented

## CC(=O)N[C@@H](CSC/C=C(\C)CC/C=C(\C)CCC=C(C)C)C(=O)O [AFC, N-acetyl-S-farnesyl-L-cysteine]
[1]; 30 μM compound, 24 hours, wildtype myotubes
  myotube diameter / myotube integrity: no effect
atrogin-1 protein; 24 hours
  atrogin-1 protein expression: no effect
atrogin-1 mRNA; 24 hours
  atrogin-1 mRNA expression: no effect

## CC(=O)N[C@@H](CSC/C=C(\C)CC/C=C(\C)CC/C=C(\C)CCC=C(C)C)C(=O)O [AGGC, N-acetyl-S-geranylgeranyl-L-cysteine]
[2]; 30 μM AGGC, 24 hours, atrogin-1 knockout myotubes
  effect on myotubes: resistant to this reagent
atrogin-1 protein; 24 hours
  atrogin-1 protein expression: induction
atrogin-1 mRNA; 24 hours
  atrogin-1 mRNA expression: induction

## CC[C@H](C)C(=O)O[C@H]1C[C@@H](C)C=C2C=C[C@H](C)[C@H](CC[C@@H]3C[C@@H](O)CC(=O)O3)[C@H]21 [lovastatin]
[1]; 0.5 to 1.0 μM lovastatin for 24 hours, wildtype myotubes
  myotube diameter: dose-dependent reduction in myotube diameter
[2]; 0.5 to 1.0 μM lovastatin for 24 hours, atrogin-1 knockout cultures
  myotube diameter: resistant to lovastatin-induced reduction in myotube diameter
atrogin-1 protein; [6]
  atrogin-1 protein levels: dose-dependent increase
Zebrafish embryos; lovastatin alone, zebrafish in vivo model
  muscle phenotypes (longitudinal muscle fiber staining, myosin heavy chain antibody): clear dose-dependent muscle phenotypes
Zebrafish embryos; zebrafish embryos, higher concentrations
  lovastatin concentration giving class 2 changes (fiber thinning, attenuation of MHC staining): 0.05 to 0.5 µM
Zebrafish embryos; zebrafish embryos, low concentration
  lovastatin concentration giving class 1 changes (bowing, gap formation, fiber disruption): 0.025 to 0.05 µM
Zebrafish embryos; zebrafish embryos, maximal concentration
  lovastatin concentration giving class 3 changes (irregular somite boundries): 1.0 to 5.0 µM
atrogin-1 mRNA; [6]
  atrogin-1 mRNA levels: dose-dependent increase
